# Test results taken from patent US4405638A, “2-Methoxyphenyl esters of N-substituted amino acids, a process for their preparation and pharmaceutical compositions containing them” (Sigma-Tau Industrie Farmaceutiche Riunite S.p.A, priority 1981, dated 1983).
# Legend:
# [1] = tested on: cough; experiment: Antitussive activity: cough induced by citric acid aerosol in Guinea pigs; assay type: in vivo
# Experimental: This activity was tested on Guinea pigs, in which cough was induced by citric acid aerosol, in comparison with codeine. Compound (2) was administered per os and intraperiotoneally.
# Antitussive activity. Cough induced in Guinea pigs
# [2] = Acute toxicity, LD50 by the Weil method, intraperitoneal administration in the mouse; details: in vivo, ip, N = 4 K = 4, confidential limits given
# Text: LD50 of the compounds of formula (I), evaluated by the Weil method ("Tables for convenient calculation of median effective dose (LD50 or ED50) and instructions in their use", Biometrics, 249-253, 1952), by intraperitoneal administration in the mouse.
# LD50 and confidential limits, mg/kg i.p., of the
# compounds of formula I. Weil method, N = 4 K = 4
# [3] = tested on: bronchial secretion; experiment: Expectorating activity: amount of bronchial secretion in rabbits (method of Perry et al.); assay type: in vivo, rabbit; details: male rabbits, 20 to 40 mg
# Experimental: The experimentation was carried out on male rabbits, weighting 2-3 kg, narcotized with ethyl urethane, according to the method described by Perry et al. (J. Pharm. Exp. Ther. 73, 65 (1941)). Each compound of formula (I) was administered to 5 rabbits in doses ranging from 20 to 40 mg, 1 hour after the incannulation. The control group (8 rabbits) was given only water. The amount of secretion was determined 1, 2 and 4 hours after the administration.
# Effects of compounds of formula (I) on the bronchial secretion
# Percentage variations (± standard error) of the
# bronchial secretion, in comparison with the
# basic values, in the following times after the […]
# [4] = tested on: bronchial tree; experiment: Bronchosecretogogic activity: sodium fluoresceine method in the rat (Mawatari); assay type: in vivo; details: 500 mg/kg i.p.
# Experimental: The bronchosecretogogic activity of compound (2), i.e. 2-methoxyphenyl N-[2-(2-thenoylthio)propionyl]aminoacetate, was tested according to the method of the sodium fluoresceine in the rat, as described by Mawatari (Experimental Studies on the expectorant action of several drugs, Kagoshima Daigaku Igaku Zasshi 27, 561 (1976)), in comparison with S-carboxymethyl-cysteine (CMC) and N-(2-mercaptopropionyl)glycine (MPG).
# Removal of the sodium fluoresceine from the bronchial
# tree (percentage increase versus the controls).
# [5] = tested on: esterase; experiment: In vitro enzymatic hydrolysis of compound (2); assay type: in vitro ADME
# Experimental: "In vitro" and "in vivo" tests were carried out.
# [6] = In vivo pharmacokinetics in the rat
# Text: After administration of equimolecular doses of N-[2-(2-thenoylthio)propionyl]glycine and of the corresponding 2-methoxyphenyl ester (compound (2)), higher lung concentrations of N-(2-mercaptopropionyl)glycine and thiophene-2-carboxylic acid are found in the case of compound (2) administration.
# [7] = equimolecular doses, versus N-[2-(2-thenoylthio)propionyl]glycine
Structure (SMILES),LD50 [2] [mg/kg],"Percentage variations (± standard error) of the bronchial secretion, in comparison with the basic values ([3]; 1h after the administration)","Percentage variations (± standard error) of the bronchial secretion, in comparison with the basic values ([3]; 2h after the administration)","Percentage variations (± standard error) of the bronchial secretion, in comparison with the basic values ([3]; 4h after the administration)",further results
"COc1ccc2c3c1O[C@H]1[C@@H](O)C=C[C@H]4[C@@H](C2)N(C)CC[C@@]341 [codeine, reference compound]",,,,,% inhibition of the cough ([1]; 12.5 mg/kg i.p.): 90.2%; % inhibition of the cough ([1]; 25 mg/kg per os): 75.6%
"COc1ccccc1OC(=O)C(C)NC(C)=O (stereo not drawn) [(3), 2-methoxyphenyl ester of N-acetylalanine]",1150,"+0,8 ± 0,04%","+1,2 ± 0,04%","+2,7 ± 0,08%",
"COc1ccccc1OC(=O)CNC(C)=O [(1), 2-methoxyphenyl ester of N-acetlyglycine]",1010,"+1,3 ± 0,02%","-1,4 ± 0,03%","+2,3 ± 0,07%",
"N[C@@H](CSCC(=O)O)C(=O)O [CMC, S-carboxymethyl-cysteine, reference compound]",,,,,Removal of the sodium fluoresceine from the bronchial tree (percentage increase versus the controls) [4]: 33.4%
"COc1ccccc1OC(=O)C(C)NC(=O)C(C)SC(=O)c1cccs1 (stereo not drawn) [(4), 2-methoxyphenyl ester of N-[2-(2-thenoylthio)propionyl]alanine]",960,"+1,5 ± 0,05%","+1,9 ± 0,08%","+2,5 ± 0,09%",
"COc1ccccc1OC(=O)C(CSC(C)=O)NC(=O)C(C)SC(=O)c1cccs1 (stereo not drawn) [(9), 2-methoxyphenyl ester of N-[2-(2-thenoylthio)propionyl]-S-acetylcysteine]",1230,"+1,9 ± 0,03%","+1,5 ± 0,04%","+2,4 ± 0,04%",
"COc1ccccc1OC(=O)C(CSCC(=O)O)NC(=O)C(C)SC(=O)c1cccs1 (stereo not drawn) [(10), 2-methoxyphenyl ester of N-[2-(2-thenoylthio)propionyl]-S-carboxymehtylcysteine]",1340,"+0,8 ± 0,02%","+1,3 ± 0,04%","+2,1 ± 0,03%",
"COc1ccccc1OC(=O)C(CS)NC(C)=O (stereo not drawn) [(5), 2-methoxyphenyl ester of N-acetylcysteine]",1270,"+0,9 ± 0,05%","+2,1 ± 0,01%","+3,8 ± 0,09%",
"COc1ccccc1OC(=O)C(CSC(C)=O)NC(C)=O (stereo not drawn) [(6), 2-methoxyphenyl ester of N,S-diacetylcysteine]",1580,"+0,4 ± 0,05%","+2,1 ± 0,05%","+1,9 ± 0,04%",
"COc1ccccc1OC(=O)CNC(=O)C(C)SC(=O)c1cccs1 (stereo not drawn) [Compound (2), 2-methoxyphenyl N-[2-(2-thenoylthio)propionyl]aminoacetate]",1240,"+0,3 ± 0,01%","+0,7 ± 0,03%","+1,4 ± 0,05%","Removal of the sodium fluoresceine from the bronchial tree (percentage increase versus the controls) [4]: 123.5%; bronchosecretogogic activity, comparison with CMC and MPG [4]: much higher than CMC and MPG; % inhibition of the cough ([1]; 100 mg/kg i.p.): 95.8%; % inhibition of the cough ([1]; 500 mg/kg per os): 82.3%; enzymatic hydrolysis products [5]: enzymetically hydrolized giving N-(2-mercaptopropionyl)glycine, thiophene-2-carboxylic acid and guaiacol; tissue with highest esterase activity [5]: highest esterase activity is showed by the lung; pulmonary tropism [6]: high pulmonary tropism; lung concentrations of N-(2-mercaptopropionyl)glycine [6, 7]: higher; lung concentrations of thiophene-2-carboxylic acid [6, 7]: higher; absorption ([6]; oral administration): mostly absorbed as such after oral administration"
"CC(S)C(=O)NCC(=O)O (stereo not drawn) [MPG, N-(2-mercaptopropionyl)glycine, reference compound]",,,,,Removal of the sodium fluoresceine from the bronchial tree (percentage increase versus the controls) [4]: 21.9%
"COc1ccccc1OC(=O)C(CS)NC(=O)C(C)SC(=O)c1cccs1 (stereo not drawn) [(8), 2-methoxyphenyl ester of N-[2-(2-thenoylthio)propionyl]cysteine]",980,"+1,8 ± 0,04%","+1,7 ± 0,09%","+2,7 ± 0,05%",
"COc1ccccc1OC(=O)C(CSCC(=O)O)NC(C)=O (stereo not drawn) [(7), 2-methoxyphenyl ester of N-acetyl-S-carboxymethylcysteine]",1250,"+0,5 ± 0,03%","+0,7 ± 0,07%","+1,9 ± 0,09%",
